In patent publication US20210078972A1, “QUINOLINE OR QUINAZOLINE COMPOUND AND APPLICATION THEREOF” (HAIHE BIOPHARMA CO., LTD., priority 2018, published 2021):

Each compound was assayed on MV4-11 cells (assay: MV4-11 cell proliferation, CCK-8). Conditions: Homo sapiens, 72 h, read-out: IC50 of inhibition of proliferation of MV4-11 cells.
Type: cell-based
Protocol: The inhibitory effects of the compounds on the proliferation of MV4-11 cells were detected by a CCK-8 cell counting kit (Dojindo). The specific steps are as follows: MV4-11 cells in the logarithmic phase were seeded into a 96-well culture plate at a suitable density for 90 μL per well. After overnight cultivation, the compounds at different concentrations were added to act for 72 hr, and a solvent control group was set (negative control). After 72 h of the compounds acting on the cells, the effects of the compounds on cell proliferation were detected using the CCK-8 cell counting kit (Dojindo). 10 μL of CCK-8 reagent was added to each well and the plate was placed in an incubator at 37° C. for 2-4 hours. After that, a full-wavelength microplate enzyme-labeling instrument SpectraMax 190 was used to read with a measurement wavelength of 450 nm.
The inhibition rate (%) of the compound on tumor cell growth was calculated by the following formula:
Inhibition rate (%)=(OD control well−OD administration well)/OD control well×100%
The IC50 values were obtained by regression with the four-parameter method using the software attached to the enzyme-labeling instrument.
For `CC(C)(C)c1cc(NC(=O)Nc2ccc(-c3cn4c(n3)sc3cc(OCCN5CCOCC5)ccc34)cc2)no1` [AC220, reference compound], the IC50 was less than 4 nM.

What follows are compounds tested against T1, AXL kinase (Homo sapiens, UniProt P30530) (assay: AXL kinase inhibition, Z'-LYTE FRET). Conditions: ATP 50 μM.
T1 construct: purchased eurofins 14-500
T1 sequence (P30530 473-894 limits assumed): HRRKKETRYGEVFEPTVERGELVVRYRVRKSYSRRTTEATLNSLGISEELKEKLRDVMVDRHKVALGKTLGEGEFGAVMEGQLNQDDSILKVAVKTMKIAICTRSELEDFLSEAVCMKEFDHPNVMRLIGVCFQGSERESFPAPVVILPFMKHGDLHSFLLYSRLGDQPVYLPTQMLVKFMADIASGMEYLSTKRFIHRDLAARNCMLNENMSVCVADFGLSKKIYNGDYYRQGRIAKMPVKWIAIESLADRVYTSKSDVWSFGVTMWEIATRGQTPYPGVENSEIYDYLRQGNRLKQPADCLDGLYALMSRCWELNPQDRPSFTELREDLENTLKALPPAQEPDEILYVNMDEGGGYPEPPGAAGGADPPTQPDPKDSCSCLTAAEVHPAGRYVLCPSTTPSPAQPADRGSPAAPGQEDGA
Type: biochemical
Excerpt: Detection of the activity of kinase: the inhibitory activities of the compounds against AXL kinase (eurofins, 14-500) were detected through a second-order reaction by the Z′-LYTE™ technology (detected by fluorescence, enzyme-coupled form, based on the difference in a sensitivity of phosphorylated and non-phosphorylated polypeptides to proteolytic cleavage), based on the principle of fluorescence resonance energy transfer (FRET), using Z′-LYTE™ FRET peptide substrate (Z′-LYTE™ Tyrosine 6 Peptide Substrate, Invitrogen, PV4122).
Enzymatic reaction: To a 384-well plate was added 5 μL of enzyme-substrate system (50 mM HEPES, pH 6.5, 0.01% BRU-35, 10 mM MgC2, 1 mM EGTA, 0.02% NaNA), and 5 nL of a compound (concentration gradient) was transferred thereto using an echo520 ultramicro-liquid pipetting system. After the plate was shaken at room temperature for 10-20 min, 25 nL of ATP (a final concentration of 50 μM) was transferred thereto using the echo520 ultramicro-liquid pipetting system. After shaking and well mixing, the mixture was centrifuged and reacted at 30° C. in the dark for 1.5 h.
The data analysis method is as follows:
Phosphorylation ratio=1−{(emission ratio×F100%−C100%)/[C0%−C100%+emission ratio×(F100%−F0%)]}×100;
Inhibition rate=100×(1−compound phosphorylation ratio/negative control phosphorylation ratio).
The IC50 values were calculated by GraphPad Prism software.
With `COc1cc2c(Oc3ccc(NC(=O)c4c(C)n(C)c5ccc(OC(F)(F)F)cc5c4=O)cc3F)ncnc2cc1OCCN1CCCC1` [TL-231, N-(3-fluoro-4-((6-methoxy-7-(2-(pyrrolidin-1-yl)ethoxy)quinazolin-4-yl)oxy)phenyl)-1,2-dimethyl-4-oxo-6-(trifluoromethoxy)-1,4-dihydroquinoline-3-carboxamide] the IC50 was 2.3 nM. Work on `COc1cc2c(Oc3ccc(NC(=O)c4c(C)n(C)c5ccc(OC(F)(F)F)cc5c4=O)cc3F)ncnc2cc1OCCN(C)C` [TL-233, N-(4-((7-(2-(dimethylamino)ethoxy)-6-methoxyquinazolin-4-yl)oxy)-3-fluorophenyl)-1,2-dimethyl-4-oxo-6-(trifluoromethoxy)-1,4-dihydroquinoline-3-carboxamide] yielded an IC50 of 1.9 nM. `COc1cc2ncnc(Oc3ccc(NC(=O)c4c(C)n(C)c5ccc(OC(F)(F)F)cc5c4=O)cc3F)c2cc1OCCCN1CCOCC1` [TL-236, N-(3-fluoro-4-((7-methoxy-6-(3-morpholinopropoxy)quinazolin-4-yl)oxy)phenyl)-1,2-dim ethyl-4-oxo-6-(trifluoromethoxy)-1,4-dihydroquinoline-3-carboxamide] showed an IC50 of 2.4 nM. In the case of `COc1cc2c(Oc3ccc(NC(=O)c4c(C)n(C)c5ccc(OC(F)(F)F)cc5c4=O)cc3F)ncnc2cc1OCCCN1CCN(C)CC1` [TL-238], the IC50 is reported as 1.2 nM. `CCCOc1cc2ncnc(Oc3ccc(NC(=O)c4c(C)n(C)c5ccc(OC(F)(F)F)cc5c4=O)cc3F)c2cc1OC` [TL-240, N-(3-fluoro-4-((6-methoxy-7-propoxyquinazolin-4-yl)oxy)phenyl)-1,2-dimethyl-4-oxo-6-(trifluoromethoxy)-1,4-dihydroquinoline-3-carboxamide] was tested, and the IC50 was 6.1 nM. For `CCOc1cc2ncnc(Oc3ccc(NC(=O)c4c(C)n(C)c5ccc(OC(F)(F)F)cc5c4=O)cc3F)c2cc1OC` [TL-241, N-(4-((7-ethoxy-6-methoxyquinazolin-4-yl)oxy)-3-fluorophenyl)-1,2-dimethyl-4-oxo-6-(trifluoromethoxy)-1,4-dihydroquinoline-3-carboxamide], the IC50 was 2.6 nM.
